The values that follow come from patent US7265119B2, “Tartrate salts of 5,8,14-triazatetracyclo[10.3.1.02,11.04.9]-hexadeca-2(11),3,5,7,9-pentaene and pharmaceutical compositions thereof” (Pfizer Inc, priority 2001, dated 2007).

Molecules are shown by their SMILES. Where a name gives a salt, the structure may show the parent alone.

Broadly, the solubility is the dissolved amount per volume that the medium holds. Higher therefore signals much dissolved substance.

Common to all, as to assay type: physicochemical
The nature of data set [1]: hygroscopicity. The method, then:
Further, the Form B forms orthorhombic crystals belonging to the P2(1)2(1)2(1) space group. Form B is further characterized in having an onset of melting at about 215° C. as measured by differential scanning calorimetry at a heating rate of 5 degrees per minute. […] In addition, Form B has a hygroscopicity of approximately 0.2% at 90% relative humidity.

The nature of data set [2]: solid-state stability and excipient compatibility.
The nature of data set [3]: polymorph stability / interconversion on exposure to relative humidity. The conditions noted are these: for stability at RH greater than 60%: experiments at 75% and 87% relative humidity. An excerpt:
Upon filtering off the Form C which precipitates out as a white salt, the Form C salt may be air dried.
Experiments at 23% and 43% RH have verified this phenomena.

A short description of data set [4]: stability of the hydrate under vacuum at moderate temperature. To be noted: for stability (in words): ambient conditions / low humidity. An excerpt: The L-tartrate salt exists as three possible forms: two anhydrous forms and one hydrate form.
A short description of data set [5]: aqueous solubility. The conditions noted are these: water, pH 3.3, water.
A short description of data set [6]: native pH in aqueous solution.

As for `c1cnc2cc3c(cc2n1)C1CNCC3C1` [L-tartrate salt, L-tartrate salt of 5,8,14-triazatetracyclo[10.3.1.0^2,11.0^4,9]-hexadeca-2(11),3,5,7,9-pentaene], the “hygroscopicity (in words)” value in data set [1] was “very slightly hygroscopic”. Further, the solid-state stability entry in data set [2] is reported as “high solid-state stability”. Moreover, in data set [2] (common excipients), the inertness towards excipients result is listed as “relative inertness towards common excipients”.

As for `O=C(O)C(O)C(O)C(=O)O.c1cnc2cc3c(cc2n1)C1CNCC3C1` [Form C, L-Tartrate Saft Form C of 5,8,14-Triazatetracyclo[10.3.1.0^2,11.0^4,9]-hexadeca-2(11),3,5,7,9-pentaene (Form C)], the “stability at RH greater than 60%” value in data set [3] is listed as “relatively stable over a several month period”. Besides, the “behaviour on exposure to less than 50% RH” value in data set [3] (less than 50% RH, experiments at 23% and 43% RH) is recorded as “more slowly dehydrate”. Further, the “time the hydrate maintains its one equivalent of water under vacuum” value in data set [4] (45° C. vacuum oven) was no less than 24 h. Moreover, in data set [4], the “stability (in words)” value is given as “relatively stable under ambient conditions”. Further, in data set [4] (under vacuum at moderate temperatures), the “time after which the hydrate loses water and converts to anhydrous Form B” value was no less than 48 h.

In turn, `c1cnc2cc3c(cc2n1)C1CNCC3C1` [Form B, L-Tartrate Salt of 5,8,14-Triazatetracyclo[10.3.1.0^2,11.0^4,9]-hexadeca-2(11),3,5,7,9-pentaene (Anhydrous Polymorph, Form B)] displayed a solubility in data set [5] of roughly 156 mg/mL. The “native pH in aqueous solution” value in data set [6] was “about 3.3”. Besides, the hygroscopicity result in data set [1] (at 90% relative humidity) was “approximately 0.2%”. Besides, the “stability at RH greater than 60%” value in data set [3] was “relatively stable over a several month period”. For the same compound, the “time for conversion of Form B to Form C” value in data set [3] (exposed to 100% RH) is given as no more than 2 days. Besides, in data set [4], the “stability (in words)” value is “most stable of the polymorphs at low humidity”.

On to `O=C(O)C(O)C(O)C(=O)O.c1cnc2cc3c(cc2n1)C1CNCC3C1` [Form A′, D-tartrate salt of 5,8,14-triazatetracyclo[10.3.1.0^2,11.0^4,9]-hexadeca-2(11),3,5,7,9-pentaene], for which the “hygroscopicity compared with the corresponding Form A, B or C of the L-tartrate salt” value in data set [1] is on record as “the same”.
